# Tests used:
# [1] = system: Pseudomonas syringae pv. tabaci; experiment: Photodynamic control of Pseudomonas syringae pv. tabaci in PBS, colony counts after illumination; format: cell-based; conditions: 30 min dark then 1 hour illumination (about 1000 μmol/m2/s PAR), PBS control 8.7
# Procedure: In this example, control of the gram-negative bacterial plant pathogen Pseudomonas syringae pv. tabaci with PP IX and modified PP IX was assessed, with and without chelating agents. Treatments were prepared in Phosphate Buffered Saline (PBS) in 96 well plates at desired concentrations. A bacterial suspension was inoculated into the PBS and incubated at 28° C. in the dark for 30 minutes. After 30 minutes, the 96 well plate was placed under illumination for 1 hour (at 21° C.). Following illumination, bacterial suspensions were serially diluted and 10 μL of each dilution is spread uniformly on Tryptic Soy Agar (TSA) plates and placed in the dark in an incubator at 28° C. for 48 hours. After 48 hours, bacterial colonies were counted, and the results were log transformed (log colony forming units (CFU)/mL). The relative inactivation was determined by taking the difference between log CFU (PBS control) and log CFU (treatments). Sample Illumination was provided by LED lights (Heliospectra RX30) emitting about 1000 μmol/m^2/s photosynthetically active radiation (PAR).
# Sclerotinia homoeocarpa = experiment: Control of dollar spot fungus: radial growth of fungal plugs on PDA after treatment in PBS, dark vs light; format: cell-based; conditions: 31 μM + 0.21% BrijO10:ArlasolveDMI (1:4); for Mean Radial Growth: growth between 24 and 48 hours at 21° C; for % Inhibition: relative to non-amended control
# Procedure: In this example, control of dollar spot fungus (Sclerotinia homoeocarpa) with PP IX and modified PP IX was assessed. Treatments were prepared in Phosphate Buffered Saline (PBS) in 24 well plates (in duplicates for light vs. dark incubation) at desired concentrations. Then, a 5 mm diameter plug of a Sclerotinia homoeocarpa isolate (3 isolates total tested) was inoculated into the PBS and incubated at 21° C. in the dark for 2 hours. After 2 hours, one of the 24 well plates (with isolates in triplicate) was left in the dark and one 24 well plate was placed under illumination for 1 hour (all at […]). Following illumination, fungal plugs were removed from PBS, blotted dry on sterile filter paper and transferred to non-amended Potato Dextrose Agar (PDA). Radial growth of the fungus was monitored daily until the growth of S. homoeocarpa reaches the edge of the Petri-dish. Illumination was provided by LED lights emitting about 1000 μmol/m2/s photosynthetically active radiation (PAR).
substance,measurement,setting,value
Protoporphyrin IX disodium salt [PP IX disodium salt],log CFU/ml,[1]; 10 μM + 5 mM NaEDTA in PBS,3.8 log CFU/ml
same,log CFU/ml,"[1]; 10 μM in PBS, no chelating agent",7.4 log CFU/ml
same,Mean Radial Growth,"Sclerotinia homoeocarpa; Dark (no light exposure), PBS control 10.1",10.5
same,% Inhibition,Sclerotinia homoeocarpa; Dark (no light exposure),−3.8%
same,Mean Radial Growth,"Sclerotinia homoeocarpa; Exposed to light for 1 hour (1000 PAR), PBS control 10.2",0.0
same,% Inhibition,Sclerotinia homoeocarpa; Exposed to light for 1 hour (1000 PAR),100.0%

# — patent publication US12207655B2, “Protoporphyrin IX derivatives and use thereof to improve the health of plants” (priority 2019, dated 2025)
